Assay results published in PMC5652037 (EBioMedicine, 2017).

Target: γ-secretase (catalytic subunit presenilin 1, PS1) (Cricetulus griseus, UniProt G3HNF2)
Assay: Aβ[…] secretion
Type: cell-based

CC(C)[C@H](O)C(=O)N[C@@H](C)C(=O)N[C@@H]1C(=O)N(C)CCc2ccccc21 [semagacestat]
IC50: 46.7 nM
